According to patent US20240398833A1, “PHARMACEUTICAL COMPOSITION CONTAINING 27-HYDROXYCHOLESTEROL FOR PREVENTING OR TREATING MYELOID LEUKEMIA” (PUSAN NATIONAL UNIVERSITY INDUSTRY-UNIVERSITY COOPERATION …, priority 2021, published 2024):
Entries after “also recorded” stand apart in the source; their conditions may differ.

Tests used:
[1] = system: HL60 cells and K562 cells; assay: Leukemia cell growth comparison, cell count by trypan blue; type: cell-based; details: 6.2 μM, 48 hours; for number of cells in leukemia cell lines: HL60 and K562
Method: An acute myeloid leukemia cell line HL60, and a chronic myeloid leukemia cell line, K562 cells were treated with 6.2 μM of cholesterol, 7α-hydroxycholesterol, and 27-hydroxycholesterol for 48 hours and then strained with trypan blue, and then the cell count was confirmed.

[2] = system: myeloid leukemia cells (HL60, KG1a, and K562 cells); assay: Leukemia cell count by trypan blue; type: cell-based; details: 6.2 μM, 48 hours; negative control HEK293T cells
Method: (§1) Acute myeloid leukemia cell lines HL60 and KG1 α, and chronic myeloid leukemia cell line, K562 cells were treated with 6.2 μM of 27-hydroxycholesterol for 48 hours and then strained with trypan blue, and then the cell count was confirmed. In addition, the cells were added with Annexin V and 7AAD, and the apoptosis was analyzed using FACScanto2 equipment. As a result, it was confirmed that compared to untreated cells (Con) and a cholesterol-treated leukemia cell line (Chol), 27-hydroxycholesterol increased the apoptosis in a leukemia cell line (27HC) to reduce the number of cells, which was illustrated in FIG. 3 [Con: untreated leukemia cell line, Chol: leukemia cell line treated with cholesterol, 27HC: leukemia cell line treated with 27-hydroxycholesterol].

[3] = system: myeloid leukemia cells (HL60, KG1a, K562 cells); assay: ROS (DCFDA staining) in leukemia cell lines; type: cell-based; details: compared to control cells
Method: (§2) Next, the apoptosis and the ROS proportions were analyzed through DCFDA staining. In addition, to confirm the effect of 27-Hydroxycholesterol on the differentiation of leukemia cell lines, a differentiation marker, CD11b was stained and analyzed using FACScanto 2 equipment. As a result, it was confirmed that the ROS proportion was high in the leukemia cell line treated with 27-hydroxycholesterol, which was illustrated in FIG. 4 [Con: untreated leukemia cell line, Chol: leukemia cell line treated with cholesterol, 27HC: leukemia cell line treated with 27-hydroxycholesterol].

[4] = system: hematopoietic stem and progenitor cells (HSPC); assay: Apoptosis (Annexin V / 7AAD, FACS) in mouse bone marrow cells; type: cell-based; details: 6.2 μM, 48 hours, compared to control cells
Method: (§3) Bone marrow cells were extracted from the mouse tibia and femur and treated with 6.2 μM of 27-hydroxycholesterol for 48 hours. In order to confirm apoptosis, the cells treated with 27-hydroxycholesterol were collected, the cells were dissolved in a 1× Annexin binding buffer, added with Annexin V and 7AAD, and analyzed using FACScanto2 equipment, and in order to confirm reactive oxygen species, the cells were dissolved in an FACS staining buffer, added with DCFDA, stained at 37° C. for 30 minutes, and analyzed using FACScanto2 equipment. As a result, an effect of 27-hydroxycholesterol on increased apoptosis and reactive oxygen species (ROS) in hematopoietic stem and progenitor cells (HSPC) was confirmed and illustrated in FIG. 2 [Con or Ctrl: mouse bone marrow cells untreated, Chol: mouse bone marrow cells treated with cholesterol, 27HC: mouse bone marrow cells treated with 27-hydroxycholesterol].

[5] = system: hematopoietic stem and progenitor cells (HSPC); assay: Reactive oxygen species (DCFDA staining, FACS) in mouse bone marrow cells; type: cell-based
Method: as §3

[6] = system: hematopoietic stem cells; assay: Bone marrow transplantation of ex vivo treated donor CD45.1 bone marrow cells; type: in vivo, mouse
Method: Bone marrow cells were taken out ex vivo, treated with 6.2 μM of 27-hydroxycholesterol (27-HC), and then subjected to bone marrow transplantation.
Specifically, referring to FIG. 9A, BM cells were extracted from the tibia and femur of a donor CD45.1 mouse, and then treated with vehicle, 6.2 μM cholesterol, and 6.2 μM 27-hydroxycholesterol for 48 hours. Then, bone marrow transplantation was performed by mixing the bone marrow cells of the CD45.2 mouse in a 1:1 ratio and injecting the mixture into the caudal vein of a recipient CD45.2 mouse that had been irradiated with 4 Gy. One month later, blood was extracted from the veins of the recipient mouse that had received bone marrow transplantation, and the cell proportion of the donor mouse was analyzed. Blood was extracted from the mouse jugular vein and added in 10 mM EDTA to prevent blood coagulation, and added in an ACK lysis buffer to lyse red blood cells. It was confirmed that after attaching CD45.1-APC and CD45.2-FITC antibodies, donor mouse CD45.1 cells were analyzed using FACSCanto2 equipment, and 27-hydroxycholesterol suppressed the regeneration and proliferation of hematopoietic stem cells, as illustrated FIGS. 9A to 9E.

[7] = system: ER stress response pathway; assay: Western blot of ER stress proteins (pIRE1α, IRE1α, PERK, ATF4, elF2α); type: cell-based
[8] = system: myeloid leukemia cells (HL60, KG1a, K562 cells); assay: Differentiation marker CD11b staining in leukemia cell lines; type: cell-based; details: compared to control cells
Method: as §2

[9] = system: myeloid leukemia cells (HL60, KG1a, K562 cells); assay: Apoptosis (Annexin V / 7AAD, FACS) in leukemia cell lines; type: cell-based; details: 6.2 μM, 48 hours, compared to control cells
Method: as §1

[10] = system: hematopoietic stem and progenitor cells (HSPC); type: cell-based, mouse
Method: The bone marrow was extracted from the mouse tibia and femur using an FACS staining buffer (phosphate-buffered saline, 2% FBS, penicillin/streptomycin), and then bone marrow cells were extracted by lysing red blood cells using an ACK lysis buffer and treated with 0.62 μM or 6.2 μM 27-hydroxycholesterol for 24 or 48 hours. After treatment, antibodies were attached and the cells were analyzed using FACSCanto2 equipment. As a result, the effect of 27-hydroxycholesterol on decreased hematopoietic stem and progenitor cells (HSPC) was confirmed, and illustrated in FIGS. 1 and 11 [Con: untreated mouse bone marrow cells, Chol: mouse bone marrow cells treated with cholesterol, 27HC: mouse bone marrow cells treated with 27-hydroxycholesterol].

[11] = system: LKS cells and hematopoietic progenitor cells (HPC); assay: qRT-PCR gene expression in sorted LKS cells and hematopoietic progenitor cells; type: cell-based, mouse; details: 6.2 μM, 48 hours
Method: Bone marrow cells were extracted from the mouse tibia and femur and treated with 6.2 μM of 27-hydroxycholesterol for 48 hours. After treatment, the cells were added with PE-Cy5-CD3, PE-Cy5-CD4, PE-Cy5-CD8, PE-Cy5-CD19, PE-Cy5-B220, PE-Cy5-GR1, PE-Cy5-Ter119, PE-Sca1, APC-Add cKit, PE-Cy7-CD150, and APC-Cy7-CD48 antibodies, stained for 30 minutes at 4° C., and then LKS (Lin-Sca1^+cKit^+) and hematopoietic progenitor cells (Lin^−Sca1^+cKit^+CD48^+) were separated using FACSAria. Thereafter, RNA was extracted from the cells using an RNA extraction kit, and cDNA was synthesized from RNA using a cDNA synthesis kit. The synthesized cDNA was subjected to qRT-PCR using primers related to apoptosis and ER stress and SYBR-green. As a result, it was confirmed that gene expression related to apoptosis and ER stress was increased according to treatment of 27-hydroxycholesterol in LKS and hematopoietic progenitor cells, which were immature cells, compared to total bone marrow cells, as illustrated in FIG. 6.

## CC(C)CCC[C@@H](C)[C@H]1CC[C@H]2[C@@H]3[C@H](O)C=C4C[C@@H](O)CC[C@]4(C)[C@H]3CC[C@]12C [7α-hydroxycholesterol, reference compound]
[1]
  effect on chronic myeloid leukemia cells: no effect
  number of cells in leukemia cell lines: did not have a significant effect
[1]; relative to 27-hydroxycholesterol
  effect on acute myeloid leukemia cell lines: weaker effect

## C[C@@H](CO)CCC[C@@H](C)[C@H]1CC[C@H]2[C@@H]3CC=C4C[C@@H](O)CC[C@]4(C)[C@H]3CC[C@]12C [27-hydroxycholesterol]
[2]
  number of myeloid leukemia cells (cell count): reduce; also recorded: significantly decreased
[1]; FIG. 8A/8B
  growth of leukemia cells (HL60 cells and K562 cells): inhibited; also recorded: minimal; also recorded: suppressed
[1]
  number of cells in leukemia cell lines: decreased
[3]
  ROS proportion of myeloid leukemia cells: increased and high
[4]
  apoptosis in LKS cells, HPC and HSC: increased
[5]; 6.2 μM, 48 hours, compared to control cells
  ROS in LKS cells, HPC and HSC: increased
[6]; 6.2 μM, 48 hours ex vivo, after transplantation, FIG. 9C
  proportions of donor monocytes, B cells and T cells in blood of recipient mouse: decreased
[6]; 6.2 μM, 48 hours ex vivo, after transplantation, FIG. 9D
  engraftment ability (donor CD45.1 cells) in bone marrow cells: decreased
[6]; 6.2 μM, 48 hours ex vivo, after transplantation, FIG. 9E
  proportions of donor LK cells, LKS cells, HPC and HSC in bone marrow cells of recipient mouse: decreased
[6]; 6.2 μM, 48 hours ex vivo, one month after transplantation, FIG. 9B
  engraftment ability (donor CD45.1 cells) in blood: decreased
[6]; donor BM cells treated ex vivo with 6.2 μM for 48 hours, then transplanted
  regeneration and proliferation of hematopoietic stem cells: suppressed
[7]; HL60 cells, 48 hours
  ER stress (amount of ER stress protein): increased
[7]; THP1 cells, FIG. 5A
  ER stress response pathway: increases
[8]
  differentiation (CD11b+) of myeloid leukemia cells: increased
[9]
  apoptosis of myeloid leukemia cells: increased
[10]
  cytotoxic effect (conclusion of Example 1): cytotoxic effect specifically on hematopoietic stem and progenitor cells
[10]; 0.62 μM, 24 hours, FIG. 11B
  effect on LK, LKS, HPC, HSC, monocytes, neutrophils, B cells, T cells: no effect on all cells
[10]; BM cells treated for 24 hours or 48 hours, FIG. 11A
  number of LK cells, LKS cells, HPC and HSC: decreased
[10]; BM cells treated with 27-hydroxycholesterol, FIG. 1A/1B
  proportions of LKS cells, hematopoietic progenitor cells and hematopoietic stem cells: decreased
[10]; BM cells, FIG. 1C/1D
  proportions of common myeloid, granulocytic macrophage, megakaryocytic erythroid and common lymphocytic progenitor cells: decreased
[10]; BM cells, FIG. 1E/1F
  proportions of monocytes, neutrophils, B cells and T cells: no change
[10]; Example 2, 6.2 μM, 48 hours, compared to control cells, FIG. 2F
  proportions of LKS cells, HPC and HSC: decreased
[10]; FIG. 11C
  cKit+ cells and CD48+ cells: reduces
[11]; LKS and HPC compared to total bone marrow cells
  gene expression related to apoptosis and ER stress: increased
[11]; LKS cells and HPC
  expression of Bax gene related to apoptosis: increased
  expression of Chop, Ire1α and Xbp1s genes related to ER stress: increased
  expression of Era gene related to cancer cell growth: increased

## CC(=O)N[C@@H](CS)C(=O)O [N-acetylcysteine, reference compound]
[5]; 27-hydroxycholesterol plus antioxidant NAC, FIG. 2E
  ROS in LKS cells, HPC and HSC treated with 27-hydroxycholesterol, on treating NAC: increased
[10]; 27-hydroxycholesterol plus antioxidant NAC, FIG. 2F
  decreased proportions of LKS cells, HPC and HSC by 27-hydroxycholesterol, on treating NAC: suppressed
